Test results from patent US6949583B2, “Aminoalkoxybenzoyl-benzofuran or benzothiophene derivatives, method of preparing same and compositions containing same” (Sanofi-Synthelabo, priority 2000, dated 2005).
Where a name gives a salt, the structure may show the parent alone.

CCCCc1oc2ccc(C(=O)OC(C)C)cc2c1C(=O)c1ccc(COCCN(CCCC)CCCC)cc1 (as salt: oxalate) and CCCCc1oc2ccc(C(=O)OC(C)C)cc2c1C(=O)c1ccc(COCCCN(CCCC)CCCC)cc1 (as salt: oxalate) cannot be ordered by melting point: 73 °C for the first, 73 to 74 °C for the second.

Compared with CCCCc1oc2ccc(C(=O)OC)cc2c1C(=O)c1ccc(CC(O)CN(CCCC)CCCC)cc1 (stereo not shown) (as salt: oxalate), CCCCc1oc2ccc(C(=O)OC(C)C)cc2c1C(=O)c1ccc(CC(O)CN(CCCC)CCCC)cc1 (stereo not shown) (as salt: oxalate) is lower in melting point: 128 to 130 °C for the first, 90 to 91 °C for the second.

Compared with CCCCc1oc2ccc(C(=O)OC(C)C)cc2c1C(=O)c1ccc([C@@H]([C@@H](C)O)N(CCCC)CCCC)cc1 (as salt: oxalate), CCCCc1oc2ccc(C(=O)OC(C)C)cc2c1C(=O)c1ccc([C@@H](O)[C@@H](C)N(CCCC)CCCC)cc1 (as salt: oxalate) is lower in melting point: 150 to 151 °C for the first, 107 to 108 °C for the second.

Compared with CCCCN(CCCC)CCCc1ccc(C(=O)c2c(CCC)oc3ccc(C(=O)OC(C)C)cc23)cc1 (as salt: oxalate), CCCCCc1oc2ccc(C(=O)OC(C)C)cc2c1C(=O)c1ccc(CCCN(CCCC)CCCC)cc1 (as salt: oxalate) is lower in melting point: 155 to 157 °C for the first, 124 to 126 °C for the second.

First: CCCCc1oc2ccc(C(=O)OC(C)C)cc2c1C(=O)c1cc(Cl)c(CCCN(CCCC)CCCC)c(Cl)c1 (as salt: oxalate)
Second: CCCCc1oc2ccc(C(=O)OC(C)C)cc2c1C(=O)c1cc(C)c(CCCN(CCCC)CCCC)c(C)c1 (as salt: oxalate)
The melting point of the first is lower: 87 to 89 °C for the first, 119 to 121 °C for the second.

First: CCCCN(CCCC)CCCc1ccc(C(=O)c2c(C3CCCCC3)oc3ccc(C(=O)OC(C)C)cc23)cc1 (as salt: oxalate)
Second: CCCCN(CCCC)CCCc1ccc(C(=O)c2c(C)oc3ccc(C(=O)OC(C)C)cc23)cc1 (as salt: oxalate)
The melting point of the first is higher: 124 to 126 °C for the first, 107 to 108 °C for the second.

Compared with CCCCc1oc2ccc(C(=O)OC(C)C)cc2c1C(=O)c1ccc(CCCN(CCCC)CCCC)o1 (as salt: oxalate), CCCCc1oc2ccc(C(=O)OC(C)C)cc2c1C(=O)c1ccc(CCCN(CCCC)CCCC)s1 (as salt: oxalate) is higher in melting point: 75 to 78 °C for the first, 100 °C for the second.

First: CCCCN(CCCC)CCCc1ccc(C(=O)c2c(CC(C)C)oc3ccc(C(=O)OC(C)C)cc23)cc1 (as salt: oxalate)
Second: CCCCN(CCCC)CCCc1ccc(C(=O)c2c(CCC(=O)OC)oc3ccc(C(=O)OC(C)C)cc23)cc1 (as salt: oxalate)
The melting point of the first is lower: 105 to 107 °C for the first, 107 to 108 °C for the second.

First: CCCCc1oc2cc(C)c(C(=O)OC(C)C)cc2c1C(=O)c1ccc(CCCN(CC)CC)cc1 (as salt: oxalate)
Second: CCCCc1oc2ccc(C(=O)OC(C)C)cc2c1C(=O)c1ccc(CN(CCCC)CCCC)cc1 (as salt: oxalate)
The melting point of the first is higher: 155 to 157 °C for the first, 107 to 108 °C for the second.

First: CCCCc1oc2ccc(C(=O)OC)cc2c1C(=O)c1ccc(CN(CCCC)CCCC)cc1 (as salt: oxalate)
Second: CCCCc1oc2ccc(C(=O)OC)cc2c1C(=O)c1ccc(C(O)CN(CCCC)CCCC)cc1 (stereo not shown) (as salt: oxalate)
The melting point of the first is lower: 96 to 97 °C for the first, 124 to 126 °C for the second.

First: CCCCc1oc2ccc(C(=O)OC(C)C)cc2c1C(=O)c1ccc(C(C)(C)CCN(CCCC)CCCC)cc1 (as salt: oxalate)
Second: CCCCc1oc2ccc(C(=O)OC(C)C)cc2c1C(=O)c1ccc(C(O)CN(CCCC)CCCC)cc1 (stereo not shown) (as salt: oxalate)
The melting point of the first is lower: 92 to 93 °C for the first, 134 to 135 °C for the second.

First: CCCCc1oc2ccc(C(=O)OC)cc2c1C(=O)c1ccc(CN2CCN(CC)CC2)cc1 (as salt: oxalate)
Second: CCCCc1oc2ccc(C(=O)OC(C)C)cc2c1C(=O)c1ccc(CN2CCN(CC)CC2)cc1 (as salt: oxalate)
The melting point of the first is lower: 220 to 221 °C for the first, 222 to 224 °C for the second.

First: CCCCN(CCCC)COCc1ccc(C(=O)c2c(C(C)C)oc3ccc(C(=O)OC(C)C)cc23)cc1 (as salt: oxalate)
Second: CCCCN(CCCC)CCCc1ccc(C(=O)c2c(CCCC(=O)OC)oc3ccc(C(=O)OC(C)C)cc23)cc1 (as salt: oxalate)
The melting point of the first is higher: 106 to 108 °C for the first, 105 °C for the second.

Compared with CCCCc1oc2ccc(C(=O)OC(C)C)cc2c1C1(c2ccc(CCCN(CCCC)CCCC)cc2)OCCO1 (as salt: oxalate), CCCCc1oc2ccc(C(=O)OC(C)C)cc2c1C(=O)c1cccc(CCCN(CCCC)CCCC)c1 (as salt: oxalate) is lower in melting point: 106 to 108 °C for the first, 87 to 90 °C for the second.

First: CCCCc1oc(C)c(C(=O)OCC)c1C(=O)c1ccc(CCCN(CCCC)CCCC)cc1 (as salt: oxalate)
Second: CCCCc1sc2ccc(C(=O)OC(C)C)cc2c1C(=O)c1ccc(CCCN(CCCC)CCCC)cc1 (as salt: oxalate)
The melting point of the first is higher: 133 to 135 °C for the first, 86 to 89 °C for the second.

Work on CCCCc1oc2ccc(C(=O)OC(C)C)cc2c1C(=O)c1ccccc1CCCN(CCCC)CCCC (as salt: oxalate) yielded a melting point of 85 to 88 °C.
